Columns and labels:
Assay in all cases: Post-emergence herbicidal action
Type in all cases: in vivo
Conditions in all cases: Table C2, post-emergence, dosage 320 (0.32 kg of active substance per hectare), rated visually after about 3 weeks
[1] = system: POLCO: Polygonum convolvulus
Experimental: (§1) [table] Seeds of monocotyledonous and dicotyledonous weeds and crop plants are placed in sandy loam in plastic or wood-fiber pots, covered with soil and cultivated in a greenhouse under controlled growth conditions. 2 to 3 weeks after sowing, the test plants are treated at the one-leaf stage. The compounds of the invention, formulated in the form of wettable powders (WP) or as emulsion concentrates (EC), are then sprayed onto the green parts of the plants as aqueous suspension or emulsion with addition of 0.5% additive at a water application rate of […] (converted). After the test plants had been kept in the greenhouse under optimum growth conditions for about 3 weeks, the activity of the preparations is rated visually in comparison to untreated controls. For example, 100% activity=the plants have died, 0% activity=like control plants.

[2] = system: AMARE: Amaranthus retroflexus
Experimental: as §1

[3] = system: STEME: Stellaria media
Experimental: as §1

[4] = system: HORMU: Hordeum murinum
Experimental: as §1

[5] = system: ECHCG: Echinochloa crus-galli
Experimental: as §1

[6] = system: LOLRI: Lolium rigidum
Experimental: as §1

[7] = system: VERPE: Veronica persica
Experimental: as §1

[8] = system: AVEFA: Avena fatua
Experimental: as §1

[9] = system: ALOMY: Alopecurus myosuroides
Experimental: as §1

SMILES | Herbicidal action against [%] POLCO [1] [%] | Herbicidal action against [%] AMARE [2] [%] | Herbicidal action against [%] STEME [3] [%] | Herbicidal action against [%] HORMU [4] [%] | Herbicidal action against [%] ECHCG [5] [%] | Herbicidal action against [%] LOLRI [6] [%] | Herbicidal action against [%] VERPE [7] [%] | Herbicidal action against [%] AVEFA [8] [%] | Herbicidal action against [%] ALOMY [9] [%]
O=C(OCCCl)[C@@H]1CC[C@H](NC(=O)[C@@]2(C(F)(F)F)CC(c3cc(F)cc(F)c3)=NO2)C1 [Example I-109, 2-chloroethyl-(1R,3S)-3-({[(5R)-3-(3,5-difluorophenyl)-5-(trifluoromethyl)-4,5-dihydro-1,2-oxazol-5-yl]carbonyl}amino)cyclopentanecarboxylate] | 80 | 80 | 90 | 90 | 90 | 80 | 80 | 90 | 90
CCOC(=O)[C@H]1CC[C@H](NC(=O)[C@@]2(C(F)(F)F)CC(c3cc(F)cc(F)c3)=NO2)C1 [Example I-42] | 80 | 80 | 90 | 90 | 80 | 90 | 80 | 90 | 80
CC(C)(C)OC(=O)[C@@H]1CC[C@H](NC(=O)[C@@]2(C(F)(F)F)CC(c3cc(F)cc(F)c3)=NO2)C1 [Example I-95] | 90 | 80 | 90 | 90 | 80 | 100 | 80 | 100 | 90
O=C(O)C1CCC(NC(=O)C2(C(F)(F)F)CC(c3cccc(F)c3)=NO2)C1 (mixture of isomers) [Example I-311] | 100 | 90 | 100 | 100 | 100 | 100 | 90 | 100 | 100
CCCOC(=O)[C@@H]1CC[C@H](NC(=O)[C@@]2(C(F)(F)F)CC(c3cc(F)cc(F)c3)=NO2)C1 [Example I-53] | 100 | 90 | 100 | 100 | 100 | 100 | 90 | 100 | 100
COC(=O)C1CCC(NC(=O)C2(C(F)(F)F)CC(c3cc(C)cc(Cl)c3)=NO2)C1 (mixture of isomers) [Example I-802] | 100 | 90 | 90 | 80 | 80 | 90 | 90 | 100 | 90

Source: patent US20200369630A1, “HERBICIDALLY ACTIVE 3-PHENYL-5-TRIFLUOROMETHYLISOXAZOLINE-5-CARBOXAMIDES OF CYCLOPENTYLCARBOXYLIC ACIDS AND ESTERS” (Bayer Aktiengesellschaft, priority 2017, published 2020)
